Values quoted from earlier work as cited in patent publication US20250364101A1, “Dabigatran Dosing” (Closed Loop Medicine Ltd, priority 2023, published 2025).
Like-named read-outs stand apart in the source and are kept apart here.

How the values were obtained:
[1] = not given; remark: listed apart in the source
[2] = not given; remark: listed apart in the source

| SMILES | risk of intracranial bleeds (compared with adjusted-dose warfarin) | outcome compared with warfarin (patients with nonvalvular AF) | accumulation of the drug ([1]; daily doses of approximately 150-300 mg) | elimination via the kidney as share of total clearance ([1]; in vivo) [%] | remainder going into the faeces ([1]; oral) [%] | relationship between maximal plasma level and dose administered ([1]; single dose) | effect of food on total absorption ([1]; with food) | Change in Drug Level Exposure (AUC), increase ([2]; Amiodarone) [% increase] | Change in Drug Level Exposure (AUC) ([2]; CrCl = 30, relative to median CrCl of 69) [fold] | Change in Drug Level Exposure (AUC) ([2]; CrCl = 50, relative to median CrCl of 69) [fold] | Change in Drug Level Exposure (AUC), decrease ([2]; PPIs) [% decrease] | Change in Drug Level Exposure (AUC), increase ([2]; South Asians compared to other ethnicities) | Change in Drug Level Exposure (AUC), increase ([2]; Verapamil) [% increase] | increase in distribution volume (Vd) ([2]; above 80 kg) [% per kg] | Change in activity: bleeding ([2]; coadministration of Asprin, clopidogrel) | Change in Drug Level Exposure (AUC), increase ([2]; females compared to men) | effect of low weight on Cmax ([2]; low weight) | Change in Drug Level Exposure (AUC), increase per year of age ([2]; older compared to 72 yr) | Change in Drug Level Exposure (AUC), increase ([2]; patients with HF) |
| --- | --- | --- | --- | --- | --- | --- | --- | --- | --- | --- | --- | --- | --- | --- | --- | --- | --- | --- | --- |
| CCCCCCOC(=O)NC(=N)c1ccc(NCc2nc3cc(C(=O)N(CCC(=O)OCC)c4ccccn4)ccc3n2C)cc1 [Dabigatran etexilate] | small reduction | superior to warfarin | – | – | – | – | – | – | – | – | – | – | – | – | – | – | – | – | – |
| [H]/N=C(/N)c1ccc(NCc2nc3cc(C(=O)N(CCC(=O)O)c4ccccn4)ccc3n2C)cc1 [dabigatran] | – | – | approximately 1.7 fold | 80 | ~90 | linear relationship | does not affect | 12 | 1.8 | 1.3 | ~13 | ~26% increase in South Asians compared to other ethnicities | 23 | 0.8 | Coadministration will increase chance of bleeding | ~9% increase in females compared to men | will increase | 0.41% increase per year older compared to 72 yr % per year | ~7% increase in patients with HF |
